# Reference: US8569292B2, “Cyclic inhibitors of 11β-hydroxysteroid dehydrogenase 1” (Vitae Pharmaceuticals, Inc., priority 2008, dated 2013)
# Experiments:
# CYP2C19 = CYP2C19 (Homo sapiens, UniProt P33261); assay: Biological Test Example 8: CYP2C19 inhibition (diazepam N-demethylation); format: in vitro ADME
# CYP2C9 [1] = molecular target: T1, CYP2C9 (Homo sapiens, UniProt P11712); assay: Biological Test Example 7: CYP2C9 inhibition (naproxen O-demethylation); format: in vitro ADME
# T1 construct: purchased Invitrogen 2859; host or cells: insect cells infected with baculovirus (microsomes)
# T1 sequence (P11712 whole entry): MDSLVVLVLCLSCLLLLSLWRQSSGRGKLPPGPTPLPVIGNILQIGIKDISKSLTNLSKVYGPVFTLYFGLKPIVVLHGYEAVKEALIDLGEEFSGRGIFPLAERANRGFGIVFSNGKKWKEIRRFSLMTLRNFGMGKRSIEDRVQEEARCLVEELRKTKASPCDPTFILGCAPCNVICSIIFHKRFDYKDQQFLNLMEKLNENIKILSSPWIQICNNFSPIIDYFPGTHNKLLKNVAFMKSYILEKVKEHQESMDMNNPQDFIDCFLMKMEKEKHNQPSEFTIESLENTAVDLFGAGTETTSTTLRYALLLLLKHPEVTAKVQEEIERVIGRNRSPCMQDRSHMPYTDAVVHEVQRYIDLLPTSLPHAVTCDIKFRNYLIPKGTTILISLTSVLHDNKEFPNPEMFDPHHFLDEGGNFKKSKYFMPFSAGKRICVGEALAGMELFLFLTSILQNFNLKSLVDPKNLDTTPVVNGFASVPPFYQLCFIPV
# CYP3A4 = CYP3A4 (Homo sapiens, UniProt P08684); assay: Biological Test Example 6: CYP3A4 inhibition (erythromycin N-demethylation); format: in vitro ADME
# Sequence of CYP3A4 (P08684 whole entry): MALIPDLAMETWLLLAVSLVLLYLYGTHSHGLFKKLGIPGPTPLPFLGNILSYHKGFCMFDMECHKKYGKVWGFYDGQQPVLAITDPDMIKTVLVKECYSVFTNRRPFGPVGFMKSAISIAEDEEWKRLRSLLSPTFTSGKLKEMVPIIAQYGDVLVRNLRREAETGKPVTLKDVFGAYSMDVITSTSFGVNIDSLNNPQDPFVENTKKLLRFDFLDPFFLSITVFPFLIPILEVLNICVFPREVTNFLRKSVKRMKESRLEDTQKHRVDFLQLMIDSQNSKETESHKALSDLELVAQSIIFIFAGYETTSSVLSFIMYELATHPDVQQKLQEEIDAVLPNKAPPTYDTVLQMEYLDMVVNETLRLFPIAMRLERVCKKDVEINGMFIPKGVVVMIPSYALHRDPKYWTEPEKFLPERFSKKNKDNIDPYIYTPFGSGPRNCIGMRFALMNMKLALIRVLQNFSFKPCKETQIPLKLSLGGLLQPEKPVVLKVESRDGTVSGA
# 11β-HSD1 [2] = molecular target: T2, 11β-HSD1 (Homo sapiens, UniProt P28845); assay: Biological Test Example 4: microsomal 11β-HSD1 in the presence of 50% human plasma; conditions: for Shift: IC50 in Test Example 4 divided by IC50 in Test Example 1
# T2 sequence (P28845 whole entry): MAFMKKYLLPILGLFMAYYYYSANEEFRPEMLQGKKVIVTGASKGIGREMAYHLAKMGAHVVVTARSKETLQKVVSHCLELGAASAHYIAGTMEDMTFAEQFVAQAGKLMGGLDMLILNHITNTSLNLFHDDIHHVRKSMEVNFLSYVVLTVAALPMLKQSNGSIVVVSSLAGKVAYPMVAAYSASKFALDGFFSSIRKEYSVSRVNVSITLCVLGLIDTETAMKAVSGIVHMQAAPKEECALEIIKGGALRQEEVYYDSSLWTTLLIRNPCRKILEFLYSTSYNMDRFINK
# 11β-HSD1 [3] = molecular target: T2, 11β-HSD1; assay: biochemical; conditions: for inhibition at 0.1 µM: read-out: Average % inhibition at 100 nM
# CYP2C9 [4] = molecular target: T1, CYP2C9; assay: Biological Test Example 9: CYP2C9 inhibition (Invitrogen kit, fluorogenic OOMR); format: in vitro ADME
# [5] = Biological Test Example 1 IC50 (nM)
# [6] = IC50 Range, Biological Test Example 1
# Sequence of CYP2C19 (P33261 whole entry): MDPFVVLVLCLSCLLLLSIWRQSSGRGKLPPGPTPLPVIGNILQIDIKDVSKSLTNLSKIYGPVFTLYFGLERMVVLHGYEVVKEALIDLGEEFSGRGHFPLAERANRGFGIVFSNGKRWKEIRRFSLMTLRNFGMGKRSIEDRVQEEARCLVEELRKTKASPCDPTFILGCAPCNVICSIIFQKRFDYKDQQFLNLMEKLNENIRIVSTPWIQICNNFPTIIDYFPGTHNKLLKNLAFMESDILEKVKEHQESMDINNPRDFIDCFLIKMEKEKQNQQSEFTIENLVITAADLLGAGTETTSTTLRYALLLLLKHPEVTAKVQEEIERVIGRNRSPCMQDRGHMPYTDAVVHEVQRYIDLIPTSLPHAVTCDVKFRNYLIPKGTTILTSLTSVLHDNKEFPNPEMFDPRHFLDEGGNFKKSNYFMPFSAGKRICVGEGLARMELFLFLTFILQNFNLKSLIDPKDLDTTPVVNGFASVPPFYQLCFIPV
Compound,IC50 (CYP2C19) [µM],IC50 (CYP2C9 [1]) [µM],IC50 (CYP3A4) [µM],IC50 (11β-HSD1 [2]) [µM],IC50 (11β-HSD1 [3]; [5]) [nM],IC50 (11β-HSD1 [3]; [6]) [nM],inhibition at 0.1 µM (11β-HSD1 [3]) [%],IC50 (CYP2C9 [4]) [µM],Shift (11β-HSD1 [2])
"C[C@@H](c1ccc(-c2ncc(C(=O)NC3CC3)s2)cc1)N1CC[C@](CC(C)(C)O)(c2ccccc2)OC1=O [EXAMPLE 20, N-cyclopropyl-2-(4-((S)-1-((S)-6-(2-hydroxy-2-methylpropyl)-2-oxo-6-phenyl-1,3-oxazinan-3-yl)ethyl)phenyl)thiazole-5-carboxamide]",47.7,15.4,49.8,–,–,–,–,–,–
"C[C@@H](c1ccc(-c2cncs2)cc1)N1CC[C@](CC(C)(C)O)(c2ccccc2)OC1=O [EXAMPLE 171, (S)-6-(2-Hydroxy-2-methyl-propyl)-6-phenyl-3-[(S)-1-(4-thiazol-5-yl-phenyl)-ethyl]-[1,3]oxazinan-2-one]",0.8,9.2,< 0.4,–,–,–,–,–,–
"C[C@@H](c1ccc(-c2cscn2)cc1)N1CC[C@](CC(C)(C)O)(c2ccccc2)OC1=O [EXAMPLE 175, (S)-6-(2-Hydroxy-2-methyl-propyl)-6-phenyl-3-[(S)-1-(4-thiazol-4-yl-phenyl)-ethyl]-[1,3]oxazinan-2-one]",1.8,29.8,9.7,–,–,–,–,–,–
"COC[C@]1(c2ccccc2)CCN([C@@H](C)c2ccc(-c3ccc(C)nn3)cc2)C(=O)O1 [EXAMPLE 167, (R)-6-(methoxymethyl)-3-((S)-1-(4-(6-methylpyridazin-3-yl)phenyl)ethyl)-6-phenyl-1,3-oxazinan-2-one]",26.1,29.5,46.7,–,–,–,–,–,–
"Cc1nn(C)c(C)c1-c1ccc([C@H](C)N2CC[C@](CC(C)(C)O)(c3ccccc3)OC2=O)cc1 [EXAMPLE 177, (S)-6-(2-Hydroxy-2-methyl-propyl)-6-phenyl-3-{(S)-1-[4-(1,3,5-trimethyl-1H-pyrazol-4-yl)-phenyl]-ethyl}-[1,3]oxazinan-2-one]",17.7,8.8,> 50,–,–,–,–,–,–
"C[C@@H](c1ccc(-c2nncs2)cc1)N1CC[C@](CC(C)(C)O)(c2ccccc2)OC1=O [EXAMPLE 173, (S)-6-(2-Hydroxy-2-methyl-propyl)-6-phenyl-3-[(S)-1-(4-[1,3,4]thiadiazol-2-yl-phenyl)-ethyl]-[1,3]oxazinan-2-one]",33.6,27.2,25.1,–,–,–,–,–,–
"C[C@@H](c1ccc(-c2ccc(C(N)=O)cn2)cc1)N1CC[C@](CC(C)(C)O)(c2ccccc2)OC1=O [EXAMPLE 143, 6-(4-((S)-1-((S)-6-(2-hydroxy-2-methylpropyl)-2-oxo-6-phenyl-1,3-oxazinan-3-yl)ethyl)phenyl)nicotinamide]",> 50,> 50,–,–,–,–,–,–,–
"Cc1cc(-c2ccc([C@H](C)N3CC[C@](CCO)(c4ccc(F)cc4)OC3=O)cc2)ccn1 [EXAMPLE 75, (S)-6-(4-fluorophenyl)-6-(2-hydroxyethyl)-3-((S)-1-(4-(2-methylpyridin-4-yl)phenyl)ethyl)-1,3-oxazinan-2-one]",–,12.2,14.9,0.0098,1.1,< 100,97.7,9.1,–
"Cc1cc(-c2ccc([C@H](C)N3CC[C@](CC4(O)CC4)(c4ccc(F)cc4)OC3=O)cc2)ccn1 [EXAMPLE 115, (S)-6-(4-fluorophenyl)-6-((1-hydroxycyclopropyl)methyl)-3-((S)-1-(4-(2-methylpyridin-4-yl)phenyl)ethyl)-1,3-oxazinan-2-one]",–,–,–,0.0103,1,< 100,95.1,4.4,10.2
"C[C@@H](c1ccc(-c2ccn(C)n2)cc1)N1CC[C@](CCCO)(c2ccccc2)OC1=O [EXAMPLE 100, (R)-6-(3-hydroxypropyl)-3-((S)-1-(4-(1-methyl-1H-pyrazol-3-yl)phenyl)ethyl)-6-phenyl-1,3-oxazinan-2-one]",–,–,–,0.006,1.2,< 100,93.1,4.5,4.8
"COc1ccc(-c2ccc([C@H](C)N3CC[C@](CC(C)(C)O)(c4ccc(F)cc4)OC3=O)cc2)cn1 [EXAMPLE 64, (S)-6-(4-fluorophenyl)-6-(2-hydroxy-2-methylpropyl)-3-((S)-1-(4-(6-methoxypyridin-3-yl)phenyl)ethyl)-1,3-oxazinan-2-one]",–,–,–,0.0062,0.8,< 100,99.6,4.7,8.2
"C[C@@H](c1ccc(-c2cncc(F)c2)cc1)N1CC[C@](CCCO)(c2ccc(F)cc2)OC1=O [EXAMPLE 148, (R)-6-(4-fluorophenyl)-3-((S)-1-(4-(5-fluoropyridin-3-yl)phenyl)ethyl)-6-(3-hydroxypropyl)-1,3-oxazinan-2-one]",–,–,–,0.0048,0.7,< 100,97.4,1.7,7.3

# Further lines, results first:
IC50 (CYP2C19) [µM],IC50 (CYP2C9 [1]) [µM],IC50 (CYP3A4) [µM],IC50 (11β-HSD1 [2]) [µM],IC50 (11β-HSD1 [3]; [5]) [nM],IC50 (11β-HSD1 [3]; [6]) [nM],inhibition at 0.1 µM (11β-HSD1 [3]) [%],IC50 (CYP2C9 [4]) [µM],Shift (11β-HSD1 [2]),Compound
25.7,30,42.9,–,–,–,–,–,–,"C[C@@H](c1ccc(-c2cc(S(C)(=O)=O)ccn2)cc1)N1CC[C@](CC(C)(C)O)(c2ccccc2)OC1=O [EXAMPLE 185, (S)-6-(2-Hydroxy-2-methyl-propyl)-3-{(S)-1-[4-(4-methanesulfonyl-pyridin-2-yl)-phenyl]-ethyl}-6-phenyl-[1,3]oxazinan-2-one]"
33.3,24.2,26.6,–,–,–,–,–,–,"Cc1nn(C)cc1-c1ccc([C@H](C)N2CC[C@](CC(C)(C)O)(c3ccccc3)OC2=O)cc1 [EXAMPLE 193, 3-{(S)-1-[4-(1,3-Dimethyl-1H-pyrazol-4-yl)-phenyl]-ethyl}-(S)-6-(2-hydroxy-2-methyl-propyl)-6-phenyl-[1,3]oxazinan-2-one]"
15.5,10.4,11.2,–,–,–,–,–,–,"C[C@@H](c1ccc(-c2cnc(C3CC3)nc2)cc1)N1CC[C@](CC(C)(C)O)(c2ccccc2)OC1=O [EXAMPLE 192, 3-{(S)-1-[4-(2-Cyclopropyl-pyrimidin-5-yl)-phenyl]-ethyl}-(S)-6-(2-hydroxy-2-methyl-propyl)-6-phenyl-[1,3]oxazinan-2-one]"
> 50,> 50,> 50,–,–,–,–,–,–,"C[C@@H](c1ccc(-c2cncc([S+](C)[O-])c2)cc1)N1CC[C@](CC(C)(C)O)(c2ccccc2)OC1=O (stereo partly drawn) [EXAMPLE 189, (S)-6-(2-Hydroxy-2-methyl-propyl)-3-{(S)-1-[4-(5-methanesulfinyl-pyridin-3-yl)-phenyl]-ethyl}-6-phenyl-[1,3]oxazinan-2-one]"
17,10.7,21.1,–,–,–,–,–,–,"C[C@@H](c1ccc(-c2nnc(C(F)(F)F)s2)cc1)N1CC[C@](CC(C)(C)O)(c2ccccc2)OC1=O [EXAMPLE 179, (S)-6-(2-Hydroxy-2-methyl-propyl)-6-phenyl-3-{(S)-1-[4-(5-trifluoromethyl-[1,3,4]thiadiazol-2-yl)-phenyl]-ethyl}-[1,3]oxazinan-2-one]"
32.3,32.6,–,–,–,–,–,–,–,"Cc1cnc(-c2ccc([C@H](C)N3CC[C@](CC(C)(C)O)(c4ccccc4)OC3=O)cc2)cn1 [EXAMPLE 151, (S)-6-(2-hydroxy-2-methylpropyl)-3-((S)-1-(4-(5-methylpyrazin-2-yl)phenyl)ethyl)-6-phenyl-1,3-oxazinan-2-one]"
> 50,> 50,36.4,–,–,–,–,–,–,"C[C@@H](c1ccc(-c2cccc([S+](C)[O-])n2)cc1)N1CC[C@](CC(C)(C)O)(c2ccccc2)OC1=O (stereo partly drawn) [EXAMPLE 191, (S)-6-(2-Hydroxy-2-methyl-propyl)-3-{(S)-1-[4-(6-methanesulfinyl-pyridin-2-yl)-phenyl]-ethyl}-6-phenyl-[1,3]oxazinan-2-one]"
33.8,28.8,–,–,–,–,–,–,–,"CNC(=O)c1ccc(-c2ccc([C@H](C)N3CC[C@](CC(C)(C)O)(c4ccccc4)OC3=O)cc2)nc1 [EXAMPLE 150, 6-(4-{1-[6-(2-Hydroxy-2-methyl-propyl)-2-oxo-6-phenyl-[1,3]oxazinan-3-yl]-ethyl}-phenyl)-N-methyl-nicotinamide]"
39.4,48.6,45.6,–,–,–,–,–,–,C[C@@H](c1ccc(-c2ccc(C(=O)N(C)C)nc2)cc1)N1CC[C@](CC(C)(C)O)(c2ccccc2)OC1=O [EXAMPLE 170]
> 50,> 50,33.7,–,–,–,–,–,–,"C[C@@H](c1ccc(-c2cccc(S(C)(=O)=O)n2)cc1)N1CC[C@](CC(C)(C)O)(c2ccccc2)OC1=O [EXAMPLE 190, (S)-6-(2-Hydroxy-2-methyl-propyl)-3-{(S)-1-[4-(6-methanesulfonyl-pyridin-2-yl)-phenyl]-ethyl}-6-phenyl-[1,3]oxazinan-2-one]"
14.4,9.2,9.8,–,–,–,–,–,–,"Cc1ncc(-c2ccc([C@H](C)N3CC[C@](CC(C)(C)O)(c4ccccc4)OC3=O)cc2)s1 [EXAMPLE 180, (S)-6-(2-Hydroxy-2-methyl-propyl)-3-{(S)-1-[(2-methyl-4-thiazol-5-yl)-phenyl]-ethyl}-6-phenyl-[1,3]oxazinan-2-one]"
> 50,21.2,42.4,–,–,–,–,–,–,"C[C@@H](c1ccc(-c2cncc(S(C)(=O)=O)c2)cc1)N1CC[C@](CC(C)(C)O)(c2ccccc2)OC1=O [EXAMPLE 188, (S)-6-(2-Hydroxy-2-methyl-propyl)-3-{(S)-1-[4-(5-methanesulfonyl-pyridin-3-yl)-phenyl]-ethyl}-6-phenyl-[1,3]oxazinan-2-one]"
1,7.8,5.4,–,–,–,–,–,–,"C[C@@H](c1ccc(-c2nccs2)cc1)N1CC[C@](CC(C)(C)O)(c2ccccc2)OC1=O [EXAMPLE 174, (S)-6-(2-Hydroxy-2-methyl-propyl)-6-phenyl-3-[(S)-1-(4-thiazol-2-yl-phenyl)-ethyl]-[1,3]oxazinan-2-one]"
